The target of this experiment is T1, USP36 (Homo sapiens, UniProt Q9P275).
T1 sequence (Q9P275 1-1123): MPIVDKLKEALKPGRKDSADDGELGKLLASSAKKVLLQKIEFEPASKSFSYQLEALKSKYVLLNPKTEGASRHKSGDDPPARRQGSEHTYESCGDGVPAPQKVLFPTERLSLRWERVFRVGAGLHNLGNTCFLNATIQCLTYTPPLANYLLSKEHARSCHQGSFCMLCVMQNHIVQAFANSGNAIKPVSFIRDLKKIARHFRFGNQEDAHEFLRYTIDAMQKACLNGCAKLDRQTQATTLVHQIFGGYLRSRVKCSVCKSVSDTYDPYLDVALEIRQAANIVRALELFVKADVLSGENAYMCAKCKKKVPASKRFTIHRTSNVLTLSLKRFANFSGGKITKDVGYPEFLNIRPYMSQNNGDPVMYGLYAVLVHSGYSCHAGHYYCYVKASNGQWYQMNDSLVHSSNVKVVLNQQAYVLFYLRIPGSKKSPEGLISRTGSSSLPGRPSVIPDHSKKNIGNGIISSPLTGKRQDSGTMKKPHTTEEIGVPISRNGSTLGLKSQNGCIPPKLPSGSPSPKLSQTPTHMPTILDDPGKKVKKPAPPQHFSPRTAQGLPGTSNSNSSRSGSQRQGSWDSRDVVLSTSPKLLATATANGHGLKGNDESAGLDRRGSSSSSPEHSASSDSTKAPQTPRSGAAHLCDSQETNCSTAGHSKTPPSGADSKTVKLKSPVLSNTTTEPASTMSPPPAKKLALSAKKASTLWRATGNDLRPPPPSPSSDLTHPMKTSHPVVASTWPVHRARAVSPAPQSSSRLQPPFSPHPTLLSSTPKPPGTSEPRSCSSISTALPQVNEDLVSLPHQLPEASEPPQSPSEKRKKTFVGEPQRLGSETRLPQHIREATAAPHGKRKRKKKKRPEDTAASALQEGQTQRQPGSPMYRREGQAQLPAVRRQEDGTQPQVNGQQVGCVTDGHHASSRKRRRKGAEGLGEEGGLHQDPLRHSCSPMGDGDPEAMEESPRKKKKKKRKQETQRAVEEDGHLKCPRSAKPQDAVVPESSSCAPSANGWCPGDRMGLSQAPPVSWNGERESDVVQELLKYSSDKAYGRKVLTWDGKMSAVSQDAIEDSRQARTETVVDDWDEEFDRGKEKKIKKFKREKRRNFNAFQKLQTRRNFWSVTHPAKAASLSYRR
Description: biochemical. Also noted: Ubiquigent DUB profiler selectivity panel, remaining enzyme activity as % of control. The settings on record: read-out: % of control remaining. The procedure, abridged:
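In YFP-PRKN-overexpressing hTERT-RPE1 cells, 1 h antimycin A plus oligomycin A (1 μM each) with CMPD-39, then Western blot of TOMM20 ubiquitylation. Target engagement: 2 h compound, then 10 min HA-Ub-PA at 37°C, read as USP30 shift. DUB panel (>40 enzymes) screened at 1-100 μM.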

Consider `CC(C)(C)NS(=O)(=O)c1ccc(NC(=O)[C@H](Cc2ccccc2)NC(=O)c2ccc(F)cc2)cc1` [compound 39, CMPD-39], for which the remaining activity at 1 µM turned out to be 110%, the remaining activity at 10 µM was found to be 98.8% and the remaining activity at 100 µM stood at 94.8%.

The values are drawn from article PMC8645336, “Benchmarking a highly selective USP30 inhibitor for enhancement of mitophagy and pexophagy” (Life Science Alliance, 2021).
